PubChem BioAssay (NCI)
“And” between values parts separate entries of the source, which are not always exact repeats. Identical values can stand only once.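 Values below derive from 48-hour exposures of cells grown in 96-well plates, with endpoints linearly interpolated between the two concentrations bracketing the appropriate inhibition level. GI50 marks 50% less growth. TGI marks complete inhibition of growth.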

Tests used:
Test in all cases: growth of human tumour cells (NCI), 48 h
KM12 colon = system: KM12 colon
NCI-H23 lung = system: NCI-H23 lung
LOX IMVI melanoma = system: LOX IMVI melanoma
K-562 leukemia = system: K-562 leukemia
SK-OV-3 ovarian = system: SK-OV-3 ovarian
HCC-2998 colon = system: HCC-2998 colon
HOP-92 NSCLC = system: HOP-92 NSCLC
DU-145 prostate = system: DU-145 prostate
NCI/ADR-RES ovarian = system: NCI/ADR-RES ovarian
IGROV1 ovarian = system: IGROV1 ovarian

| Compound | GI50 (KM12 colon) | TGI (KM12 colon) | GI50 (NCI-H23 lung) | TGI (NCI-H23 lung) | GI50 (LOX IMVI melanoma) | TGI (LOX IMVI melanoma) | GI50 (K-562 leukemia) | TGI (K-562 leukemia) | GI50 (SK-OV-3 ovarian) | TGI (SK-OV-3 ovarian) | GI50 (HCC-2998 colon) | TGI (HCC-2998 colon) | GI50 (HOP-92 NSCLC) | TGI (HOP-92 NSCLC) | GI50 (DU-145 prostate) | TGI (DU-145 prostate) | GI50 (NCI/ADR-RES ovarian) | TGI (NCI/ADR-RES ovarian) | GI50 (IGROV1 ovarian) | TGI (IGROV1 ovarian) |
| --- | --- | --- | --- | --- | --- | --- | --- | --- | --- | --- | --- | --- | --- | --- | --- | --- | --- | --- | --- | --- |
| COC(=O)C(C)NP(=O)(OCc1ccc(Cn2cnc3c(=O)[nH]c(N)nc32)cc1)Oc1ccccc1 (centres undefined) | > 100 µM | > 100 µM | > 100 µM | > 100 µM | > 100 µM | > 100 µM | > 100 µM | > 100 µM | > 100 µM | > 100 µM | > 100 µM | > 100 µM | > 100 µM | > 100 µM | > 100 µM | > 100 µM | > 100 µM | > 100 µM | > 100 µM | > 100 µM |
| NC1=C(Cl)C(=O)c2ccc(S(N)(=O)=O)cc2C1=O | 0.332 µM | 1.06 µM | 0.176 µM | 0.517 µM | 0.0367 µM | 0.182 µM | 0.313 µM | 1.21 µM | 1.67 µM | 3.11 µM | 0.775 µM | 2.06 µM | 2.04 µM | 3.73 µM | 0.132 µM | 0.273 µM | 0.285 µM | 4.68 µM | 0.681 µM | 1.57 µM |
| O=[N+]([O-])c1cc(CCl)ccc1CCl |  | 3.25 µM |  | 5.1 µM |  | 4.12 µM |  | 7.49 µM |  | 26 µM |  | 4.01 µM |  | 3.37 µM |  | 2.99 µM |  | 8.84 µM |  | 2.92 µM |
| COc1ccc(-c2cnc3ccnn3c2-c2cc(OC)c(OC)c(OC)c2)cc1 | 1.67 µM | > 100 µM | 8.29 µM | > 100 µM | 5.96 µM | > 100 µM | 0.706 µM | > 100 µM | 4.63 µM | > 100 µM | 3.79 µM | > 100 µM | > 100 µM | > 100 µM | 4.23 µM | > 100 µM | 2.89 µM | > 100 µM | 5.25 µM | > 100 µM |
| S=c1nc2[nH]ncc2c(N/N=C/c2ccccc2)[nH]1 | > 100 µM | > 100 µM | > 100 µM | > 100 µM | 64 µM | > 100 µM | > 100 µM | > 100 µM | > 100 µM | > 100 µM | > 100 µM | > 100 µM | > 100 µM | > 100 µM | > 100 µM | > 100 µM | > 100 µM | > 100 µM | 45.4 µM | > 100 µM |
| CC(=O)O[C@H]1C(=O)O[C@@H]2C[C@H]3C(C)=CC(=O)[C@@H](O)[C@]3(C)[C@H]3[C@@]4(O)OC[C@]32[C@@H]1[C@@H](C)[C@H]4O | 0.0178 µM | 0.317 µM and 0.306 µM | < 0.0141 µM | 0.0904 µM and 0.453 µM | < 0.01 µM | 0.0642 µM and 0.442 µM | 0.0188 µM | 0.125 µM and 0.128 µM | 0.237 µM | 4.04 µM and 3.35 µM | 0.032 µM | 0.548 µM and 0.271 µM | 0.0288 µM | 0.216 µM and 0.124 µM |  | 0.176 µM | 0.844 µM | 15.2 µM and 51.4 µM | < 0.01 µM | 1.4 µM and 0.247 µM |
